# Assay results taken from US7807176B2, “Polypeptide promoting vascular endothelial cell growth” (Genomidea, Inc., priority 2004, dated 2010).
# Columns and labels:
# tube formation = experiment: Tube formation, Kurabo Angiogenesis kit with CD31 staining and image quantification; type: cell-based, human; conditions: for Area (% increase): Example 5, Table 4; for Length (% increase): Example 5, Table 5; for tube Area % Increase / tube Length % Increase: Table 2
# Experimental: Using a Kurabo Angiogenesis kit (KZ-1000, Kurabo Industries Ltd.), tube formation was examined. A blank, vascular endothelial growth factor-A protein (VEGF-A), pVEGF plasmid (plasmid containing a gene encoding vascular endothelial growth factor), and pSPORT1 (a plasmid not containing a gene encoding vascular endothelial growth factor) were used as controls. […]
# Culture was carried out at 37° C. in a 5% CO2 incubator. The medium was exchanged on the 4th, 7th and 9th days of culture with a fresh medium containing the same additives.
# CD31 (PECAM-1) staining primary antibody (mouse anti-human CD31 antibody) was diluted 4,000-fold with a blocking solution (Dulbecco's phosphate buffer solution (PBS(−)) containing 1% BSA). 0.5 ml of this primary antibody solution was added to each well and incubated for 60 minutes at 37° C. After incubation was finished, each well was washed 3 times with 1 ml blocking solution.
# Then, 0.5 ml of a secondary antibody (goat anti-mouse IgG/alkali phosphatase conjugate) solution, diluted 500-fold with the blocking solution, was added to each well and incubated for 60 minutes at 37° C., and each well was washed 3 times with 1 ml distilled water. Separately, 2 tablets of BCIP/NBT were dissolved in 20 ml distilled water and filtered through a filter with a pore size of 0.2 μm, to prepare a substrate solution. 0.5 ml of the prepared BCIP/NBT substrate solution was added to each well and incubated at 37° C. until the tube turned deep violet (usually in 5 to 10 minutes). After incubation was finished, each well was washed 3 times with 1 ml distilled water, followed by removing the washing solution using suction, and the plate was left to air-dry. After drying, each well was observed under a microscope.
# Each well was observed under a 40× magnification microscope and a photograph of each well was taken. An enlarged photograph with the scale of 1 mm magnified 40-fold was taken (FIG. 5).
# Each of the resulting images was quantified with angiogenesis quantification software (KSW-5000U, Kurabo Industries Ltd.) according to the following method. The area (left in FIG. 6) and length (right in FIG. 6) of tubes formed in each visual field were measured on the scale by computer analysis with various indicators. […]
# [1] = system: ERK (extracellular signal-related kinase); conditions: according to a previous study; cited from earlier work
# HAEC = experiment: MTS assay of endothelial cell proliferation with added peptide; type: cell-based, human; conditions: MTS, Table 3
# Experimental: F2 peptide was synthesized and then contacted in a varying amount with HAEC, and the ability thereof to proliferate the cells was examined by MTS assay. The MTS assay is a modification of the MTT assay, and is a method of measuring living cells based on a reaction of reducing tetrazolium salt (MTS) by living cells in culture, into a colored product formazan. Specifically, this assay is carried out as follows: • HAEC was inoculated onto a 96-well plate at a density of 750 cells/well. • 2 μl/well of each sample was added to 100 μl/well endothelial cell medium (1% FBS, without EGF). 2 μl/well was added every day (until Day 6) (the medium was not exchanged). • 20 μl measurement solution (Cell Titer 96 AQueous One Solution Cell Proliferation Assay (Promega)) was added to each well and mixed with 100 μl of the endothelial cell medium, and the old medium was removed by suction. A mixed suspension of the measurement solution and the cells was put in a volume of 120 μl/well and then incubated for 1 to 5 hours in a CO2 incubator. • The absorbance at 490 nm was measured with a plate reader.
# The sample group (8 wells each) is as follows: • NC: Only EBM medium (endothelial cell medium) containing 1% FBS. The other samples were cultured by adding various peptides to this medium containing serum. • VEGF-A: Recombinant VEGF-A (KURABO) was added at a final concentration of 10 ng/ml. • F2-1: F2 peptide was added at a final concentration of 1 ng/ml. • F2-10: F2 peptide was added at a final concentration of 10 ng/ml. • F2-100: F2 peptide was added at a final concentration of 100 ng/ml. • F2-1000: F2 peptide was added at a final concentration of 1000 ng/ml.
# [2] = system: phosphatidyl inositol-3-kinase/Akt (PI3K/Akt); conditions: according to a previous study; cited from earlier work
# HEAC endothelial cells = experiment: Endothelial cell migration, modified Boyden chamber; type: cell-based, human
# Experimental: A polyvinyl pyrrolidone (PVP)-free polycarbonate membrane having […] (Neuro Probe Inc., Gaithersburg, Md.) was coated overnight with 0.1% gelatin and then washed with phosphate buffered saline to remove an excess of the gelatin coating. Then, 28 μl growth factor-free EBM2 medium supplemented with 1% FBS was arranged in a lower chamber, and the membrane was arranged on the lower chamber. […] The Boyden chamber was incubated at 37° C. for 4 hours. After incubation, the membrane was removed and the cells on the upper side of the membrane were removed. The cells on the lower side of the membrane were stained with Diff-Quick (Sysmex, Hyogo Pref., JP). The cells in each of randomly selected 8 visual fields (×100) were counted.
# c-fos promoter = c-fos promoter assay (c-fos-Luci luciferase); type: cell-based, bovine
# Experimental: To further confirm the proliferation ability, an assay using a promoter of proto-oncogene c-fos, which is activated in the earliest stage of cell proliferation, was carried out. The gene c-fos-Luci having luciferase ligated under this promoter, and a candidate gene, were introduced in a weight ratio of 1:1 by lipofection into bovine vascular endothelial cells, and after 24 to 48 hours, the luciferase activity was measured.
# [3] = system: human aortic endothelial cells (HAEC); experiment: Cell proliferation assay after gene transfer into HAEC (Cell Titer 96); type: cell-based; conditions: HAEC as host cell; FIG. 4
# Experimental: A human heart cDNA library (a plasmid having human heart-derived cDNA ligated to plasmid pSPORT having a CMV promoter; GIBCO BRL) was introduced into E. coli DH12S, and the plasmid prepared from the E. coli. 200 μg of the plasmid was encapsulated in 10000 HAU of the HVJ-E gene-transfer vector (the gene-transfer vector, 3×10^9 particles, prepared in Example 2 in the present invention). As host cells, human aortic endothelial cells HEAC (Sanko Junyaku Co., Ltd.), about 5000 cells, were added together with medium to each well of a 96-well microtiter plate, then cultured overnight and used. 1/100 of the HVJ-E was added to each well containing the host cells, and then left at 37° C. for 30 minutes, followed by exchanging the medium. […]
# After2 weeks, a cell proliferation assay was carried out. Using Cell Titer 96 (Promega) as a reagent, the oxidoreduction of mitochondria was measured as a change in the color of the reagent and used as an indicator of cell growth. […]
# Each of nine clones having the insert was encapsulated respectively in HVJ-E and subjected to a second screening, and as a result, a gene showing a high proliferation activity was obtained. […] The gene c-fos-Luci having luciferase ligated under this promoter, and a candidate gene, were introduced in a weight ratio of 1:1 by lipofection into bovine vascular endothelial cells, and after 24 to 48 hours, the luciferase activity was measured. […]
# [4] = system: human vascular smooth muscle cell (VSMC); experiment: Cell proliferation after gene transfer into VSMC; type: cell-based; conditions: FIG. 4
# VEGF promoter = VEGF promoter assay (luciferase gene ligated to VEGF promoter); type: cell-based, bovine; conditions: FIG. 3 right graph
substance,measurement,setting,value
"LL-37 peptide: peptide having antimicrobial activity, angiogenesis activity and artery-forming activity; rich in arginine, α-helix structure [reference compound]",Area (% increase),tube formation; 1 μg/ml,70.1%
same,Length (% increase),tube formation; 1 μg/ml,60.9%
same,Area (% increase),tube formation; 10 μg/ml,43%
same,Length (% increase),tube formation; 10 μg/ml,28%
same,effect on ERK activity,[1],increased rapidly
same,endothelial proliferation Increase [times],HAEC; 100 ng/ml,1.279 times
same,endothelial proliferation Increase [times],HAEC; 1 μg/ml,1.361 times
same,effect on PI3K/Akt activity,[2],increased rapidly
RSLEGTDRFPFVRLKNSRKLEFKDIKGIKR (CONTROL PEPTIDE) [reference compound],tube Area % Increase,tube formation; 1 μg/ml,−12%
same,tube Length % Increase,tube formation; 1 μg/ml,−11%
same,tube Area % Increase,tube formation; 10 μg/ml,−9%
same,tube Length % Increase,tube formation; 10 μg/ml,−3%
same,migration % Increase,"HEAC endothelial cells; 1 μg/ml, 4 hours",−10.1%
same,cell migration activity (in words),"HEAC endothelial cells; F2 0.01 to 1 μg/ml, control peptide 1 μg/ml, VEGF 50 ng/ml, FIG. 10",not observed
"f1: gene fragment, nucleotide sequence No. 2764-3073 in the frame of SART-2, ligated with expression vector pCDNA3.1",activity in c-fos promoter assay of gene fragments in pCDNA3.1,c-fos promoter; FIG. 8,no activity
p3743: gene clone (plasmid) from a human heart cDNA library; insert is nucleotide sequence No. 2364-3958 in SART-2,area and length of the formed tubes,"tube formation; supernatant of HAEC into which the gene had been introduced, FIG. 6",significantly greater
same,proliferation ability in HAEC after gene introduction,[3],higher proliferation ability than HGF
same,"ability to activate the c-fos promoter, compared with VEGF",c-fos promoter; FIG. 3 left graph,higher ability to activate the c-fos promoter than VEGF
same,"luciferase activity (activation of c-fos promoter), compared with HGF","c-fos promoter; candidate gene and c-fos-Luci 1:1 by lipofection, bovine vascular endothelial cells, after 24 to 48 hours, FIG. 2",higher luciferase activity than HGF
same,proliferation activity in human vascular smooth muscle cells after gene introduction,[4],"same as that of the negative control, GFP"
same,"activation of the VEGF promoter, compared with VEGF",VEGF promoter,higher activation of the VEGF promoter than by VEGF
